# From PMC10587126, “Molecular hybridization strategy for tuning bioactive peptide function” (Communications Biology, 2023)
# No end group written: not given here.
# Assays:
# [1] = Resistance to proteolytic degradation in fetal bovine serum; format: in vitro ADME; conditions: 25% fetal bovine serum in water, 37 °C
# Description: Stability assays were performed following the protocol described by Torres et al.[67]. Briefly, a peptide solution was added to GIBCO fetal bovine serum diluted to 25% in water and kept at 37 °C. The degradation kinetics were monitored by liquid chromatography and the percentage of peptide remaining in each case was calculated by integrating the peptide peak area. These experiments were performed as three independent replicates, and aliquots were taken at 0, 0.5, 1, 2, 4, and 6 h.
# human erythrocytes = experiment: Hemolytic activity; format: cell-based; conditions: 0.1–100 μmol L^−1 in PBS, room temperature, 1 h, absorbance 405 nm
# Description: Assays against freshly collected human erythrocytes were performed following protocols described by Pedron et al.[54]. Briefly, peptide aliquots at concentrations ranging from 0.1 to 100 μmol L^−1 were incubated with a suspension of erythrocytes at room temperature for 1 h. The samples were then centrifuged, and the absorbance of the supernatant was measured at 405 nm. […] The surfactant SDS and PBS buffer were used as positive[81],[82] and negative controls, respectively. Sodium heparin was used as an anticoagulant when collecting human blood. Three biological repeats were performed. All experiments were performed in accordance with the protocol CEUA/IB #I-1345/15 approved by the Instituto Butantan.
# [2] = Mouse body weight in the skin abscess infection model; format: in vivo
# Description: (§1) The anti-infective activity of the peptides VmCT1, temporin A, VT, and TV against A. baumannii ATCC 19606 was evaluated as described by Torres et al.[7],[83] Bacteria were grown in tryptic soy broth medium to an optical density of 0.5 at 600 nm. Cells were washed twice with sterile phosphate-buffered saline (pH 7.4, 13,000 rpm for 1 min) and resuspended to a final concentration of 1 × 10^7 CFU/20 μL. To generate the skin infection, female CD-1 mice (6-weeks-old) were first anesthetized with isoflurane and their backs were shaved. Using a needle, a superficial linear abrasion was made on the shaved area of the mice to injure just the stratum corneum and the upper layer of the epidermis. An aliquot of 20 μL containing 1 × 10^7 CFU of A. baumannii was then inoculated over the wound area with a pipette tip. The next day, the infected area was treated with the peptides (i.e., VmCT1, temporin A, VT, and TV), which were administered onto the abscess at their MIC. The animals were euthanized, and the scarified skin area removed 2- and 4-days post-infection. The excised area was homogenized using a bead beater for 20 min (25 Hz) and serially diluted for CFU quantification. Eight mice were used per group (n = 8). All experiments were performed in accordance with protocol 806763 approved by the IACUC at the University of Pennsylvania.
# A. baumannii ATCC 19606 = experiment: Skin abscess infection mouse model, CFU quantification; format: in vivo, Acinetobacter baumannii (in female CD-1 mice); conditions: female CD-1 mice, 1 × 10^7 CFU, peptide onto the abscess at MIC
# Description: as §1
# [3] = LC peak area, time 0 = 100, 0.5 h, replicate 1
# [4] = LC peak area, time 0 = 100, 0.5 h, replicate 2
# [5] = LC peak area, time 0 = 100, 0.5 h, replicate 3
# [6] = LC peak area, time 0 = 100, 1 h, replicate 1
# [7] = LC peak area, time 0 = 100, 1 h, replicate 2
# [8] = LC peak area, time 0 = 100, 1 h, replicate 3
# [9] = LC peak area, time 0 = 100, 2 h, replicate 1
# [10] = LC peak area, time 0 = 100, 2 h, replicate 2
# [11] = LC peak area, time 0 = 100, 2 h, replicate 3
# [12] = LC peak area, time 0 = 100, 4 h, replicate 1
# [13] = LC peak area, time 0 = 100, 4 h, replicate 2
# [14] = LC peak area, time 0 = 100, 4 h, replicate 3
# [15] = LC peak area, time 0 = 100, 6 h, replicate 1
# [16] = LC peak area, time 0 = 100, 6 h, replicate 2
# [17] = LC peak area, time 0 = 100, 6 h, replicate 3
# [18] = day 0 = 100, Day 1, replicate 1
# [19] = day 0 = 100, Day 1, replicate 2
# [20] = day 0 = 100, Day 1, replicate 3
# [21] = day 0 = 100, Day 2, replicate 1
# [22] = day 0 = 100, Day 2, replicate 2
# [23] = day 0 = 100, Day 2, replicate 3
# [24] = day 0 = 100, Day 3, replicate 1
# [25] = day 0 = 100, Day 3, replicate 2
# [26] = day 0 = 100, Day 3, replicate 3
# [27] = day 0 = 100, Day 4, replicate 1
# [28] = day 0 = 100, Day 4, replicate 2
# [29] = day 0 = 100, Day 4, replicate 3
substance,measurement,setting,value
FLGSLWRKAGTVF-NH2 [VD],Peptide remaining,[1]; [3],33.7
same,Peptide remaining,[1]; [4],43.8
same,Peptide remaining,[1]; [5],94.3
same,Peptide remaining,[1]; [6],66.3
same,Peptide remaining,[1]; [7],77.3
same,Peptide remaining,[1]; [8],49.4
same,Peptide remaining,[1]; [9],38.2
same,Peptide remaining,[1]; [10],88.5
same,Peptide remaining,[1]; [11],63.8
same,Peptide remaining,[1]; [12],66.4
same,Peptide remaining,[1]; [13],45.3
same,Peptide remaining,[1]; [14],44.7
same,Peptide remaining,[1]; [15],56.9
same,Peptide remaining,[1]; [16],59.8
same,Peptide remaining,[1]; [17],0.0
same,Hemolytic activity (concentration of peptide needed to kill 10% of red blood cells),human erythrocytes,no hemolytic activity was detected
"GLLKRIKTLL-NH2 [Anoplin, reference compound]",Peptide remaining,[1]; [3],22.7
same,Peptide remaining,[1]; [4],28.8
same,Peptide remaining,[1]; [5],20.2
same,Peptide remaining,[1]; [6],20.4
same,Peptide remaining,[1]; [7],17.5
same,Peptide remaining,[1]; [8],19.1
same,Peptide remaining,[1]; [9],14.2
same,Peptide remaining,[1]; [10],14.0
same,Peptide remaining,[1]; [11],0.0
same,Peptide remaining,[1]; [12],0.0
same,Peptide remaining,[1]; [13],0.0
same,Peptide remaining,[1]; [14],0.0
same,Peptide remaining,[1]; [15],0.0
same,Peptide remaining,[1]; [16],0.0
same,Peptide remaining,[1]; [17],0.0
same,remaining at 0.5 h,"[1]; fetal bovine serum, 25% in water, LC peak area vs time 0, 30 min, three replicates, read-out: Peptide remaining after 30 min",< 50%
same,Hemolytic activity (concentration of peptide needed to kill 10% of red blood cells),human erythrocytes,50 µmol/L
SLGALINVLKSGG-NH2 [DV],Peptide remaining,[1]; [3],13.4
same,Peptide remaining,[1]; [4],10.6
same,Peptide remaining,[1]; [5],0.0
same,Peptide remaining,[1]; [6],0.0
same,Peptide remaining,[1]; [7],0.0
same,Peptide remaining,[1]; [8],0.0
same,Peptide remaining,[1]; [9],0.0
same,Peptide remaining,[1]; [10],0.0
same,Peptide remaining,[1]; [11],0.0
same,Peptide remaining,[1]; [12],0.0
same,Peptide remaining,[1]; [13],0.0
same,Peptide remaining,[1]; [14],0.0
same,Peptide remaining,[1]; [15],0.0
same,Peptide remaining,[1]; [16],0.0
same,Peptide remaining,[1]; [17],0.0
same,Hemolytic activity (concentration of peptide needed to kill 10% of red blood cells),human erythrocytes,0.1 µmol/L
polymyxin B,"Mouse body weight, normalized to the weight at the beginning of the experiment",[2]; [18],90
same,"Mouse body weight, normalized to the weight at the beginning of the experiment",[2]; [19],95
same,"Mouse body weight, normalized to the weight at the beginning of the experiment",[2]; [20],100
same,"Mouse body weight, normalized to the weight at the beginning of the experiment",[2]; [21],90
same,"Mouse body weight, normalized to the weight at the beginning of the experiment",[2]; [22],100
same,"Mouse body weight, normalized to the weight at the beginning of the experiment",[2]; [23],100
same,"Mouse body weight, normalized to the weight at the beginning of the experiment",[2]; [24],90
same,"Mouse body weight, normalized to the weight at the beginning of the experiment",[2]; [25],100
same,"Mouse body weight, normalized to the weight at the beginning of the experiment",[2]; [26],105
same,"Mouse body weight, normalized to the weight at the beginning of the experiment",[2]; [27],95
same,"Mouse body weight, normalized to the weight at the beginning of the experiment",[2]; [28],100
same,"Mouse body weight, normalized to the weight at the beginning of the experiment",[2]; [29],110
same,A. baumannii load in the infected skin area (CFU quantification),"A. baumannii ATCC 19606; Day 2, mouse 1 of 8",2000
same,A. baumannii load in the infected skin area (CFU quantification),"A. baumannii ATCC 19606; Day 2, mouse 2 of 8",4000
same,A. baumannii load in the infected skin area (CFU quantification),"A. baumannii ATCC 19606; Day 2, mouse 3 of 8",8000
same,A. baumannii load in the infected skin area (CFU quantification),"A. baumannii ATCC 19606; Day 2, mouse 4 of 8",8000
same,A. baumannii load in the infected skin area (CFU quantification),"A. baumannii ATCC 19606; Day 2, mouse 5 of 8",8000
same,A. baumannii load in the infected skin area (CFU quantification),"A. baumannii ATCC 19606; Day 2, mouse 6 of 8",4000
same,A. baumannii load in the infected skin area (CFU quantification),"A. baumannii ATCC 19606; Day 2, mouse 7 of 8",4000
same,A. baumannii load in the infected skin area (CFU quantification),"A. baumannii ATCC 19606; Day 2, mouse 8 of 8",2000
same,A. baumannii load in the infected skin area (CFU quantification),"A. baumannii ATCC 19606; Day 4, mouse 1 of 8",2000
same,A. baumannii load in the infected skin area (CFU quantification),"A. baumannii ATCC 19606; Day 4, mouse 2 of 8",2000
same,A. baumannii load in the infected skin area (CFU quantification),"A. baumannii ATCC 19606; Day 4, mouse 3 of 8",2000
same,A. baumannii load in the infected skin area (CFU quantification),"A. baumannii ATCC 19606; Day 4, mouse 4 of 8",2000
same,A. baumannii load in the infected skin area (CFU quantification),"A. baumannii ATCC 19606; Day 4, mouse 5 of 8",4000
same,A. baumannii load in the infected skin area (CFU quantification),"A. baumannii ATCC 19606; Day 4, mouse 6 of 8",8000
same,A. baumannii load in the infected skin area (CFU quantification),"A. baumannii ATCC 19606; Day 4, mouse 7 of 8",4000
same,A. baumannii load in the infected skin area (CFU quantification),"A. baumannii ATCC 19606; Day 4, mouse 8 of 8",2000
GLGALLNVIKSGL-NH2 [AV],Peptide remaining,[1]; [3],31.1
same,Peptide remaining,[1]; [4],34.0
same,Peptide remaining,[1]; [5],0.0
same,Peptide remaining,[1]; [6],27.7
same,Peptide remaining,[1]; [7],32.8
same,Peptide remaining,[1]; [8],0.0
same,Peptide remaining,[1]; [9],39.7
same,Peptide remaining,[1]; [10],49.0
same,Peptide remaining,[1]; [11],0.0
same,Peptide remaining,[1]; [12],26.2
same,Peptide remaining,[1]; [13],41.8
same,Peptide remaining,[1]; [14],0.0
same,Peptide remaining,[1]; [15],0.0
same,Peptide remaining,[1]; [16],0.0
same,Peptide remaining,[1]; [17],0.0
same,Hemolytic activity (concentration of peptide needed to kill 10% of red blood cells),human erythrocytes,100 µmol/L
FLPLLWRVASGVF-NH2 [VT],"Mouse body weight, normalized to the weight at the beginning of the experiment",[2]; [18],95
same,"Mouse body weight, normalized to the weight at the beginning of the experiment",[2]; [19],100
same,"Mouse body weight, normalized to the weight at the beginning of the experiment",[2]; [20],100
same,"Mouse body weight, normalized to the weight at the beginning of the experiment",[2]; [21],90
same,"Mouse body weight, normalized to the weight at the beginning of the experiment",[2]; [22],105
same,"Mouse body weight, normalized to the weight at the beginning of the experiment",[2]; [23],100
same,"Mouse body weight, normalized to the weight at the beginning of the experiment",[2]; [24],90
same,"Mouse body weight, normalized to the weight at the beginning of the experiment",[2]; [25],100
same,"Mouse body weight, normalized to the weight at the beginning of the experiment",[2]; [26],95
same,"Mouse body weight, normalized to the weight at the beginning of the experiment",[2]; [27],95
same,"Mouse body weight, normalized to the weight at the beginning of the experiment",[2]; [28],100
same,"Mouse body weight, normalized to the weight at the beginning of the experiment",[2]; [29],95
same,Peptide remaining after 30 min,"[1]; LC peak area vs time 0, 30 min, three replicates",totally degraded
same,Peptide remaining,[1]; [3],0
same,Peptide remaining,[1]; [4],0
same,Peptide remaining,[1]; [5],0
same,Peptide remaining,[1]; [7],0
same,Peptide remaining,[1]; [8],0
same,Peptide remaining,[1]; [9],0
same,Peptide remaining,[1]; [10],0
same,Peptide remaining,[1]; [11],0
same,Peptide remaining,[1]; [12],0
same,Peptide remaining,[1]; [13],0
same,Peptide remaining,[1]; [14],0
same,Peptide remaining,[1]; [15],0
same,Peptide remaining,[1]; [16],0
same,Peptide remaining,[1]; [17],0
same,remaining at 1 h,"[1]; fetal bovine serum, 25% in water, LC peak area, time 0 = 100, 1 h, replicate 1, read-out: Peptide remaining",0%
same,Hemolytic activity (concentration of peptide needed to kill 10% of red blood cells),human erythrocytes,0.2 µmol/L
